Drawing on patent publication US20200392150A1, “Diaryl-B-Lactam Compound and Preparation Method and Pharmaceutical Use Thereof” (Fudan University, priority 2016, published 2020), this text covers IC50 for 25 compounds.

Common to all, as to experiment: In vitro cell growth inhibition assay (MTT)
What all share (assay type): cell-based, human

For assay [1], the system named is A2780. The following applies: A2780 human ovarian cancer cell line, 48 h, MTT; read-out: IC50 A2780. How it is done:
(§1) 5000 tumor cells per well were seeded into 96-well plate and allowed to adhere overnight. Cells were treated with various concentrations of tested compounds or DMSO (0.2%, as negative control) for 48 h. Then, the medium along with tested compounds or DMSO was discarded and […] per well MTT containing medium (0.5 mg/mL) was added. After incubation at 37° C. for 4 h, the MTT-containing medium was replaced by DMSO (150 μL per well) to dissolve the formazan crystals. Absorbance of the resulting solution was measured by microplate reader (Biotech ELx800) at 540 nm wavelength. Growth inhibition rates were calculated with the absorbance. Half maximal inhibitory concentration (IC50) of each compound was calculated using GraphPad Prism, version 6.0.

For assay [2], the system named is Hela. The following applies: Hela human cervical cancer cell line, 48 h, MTT; read-out: IC50 Hela. How it is done:
as §1

Assay [3] concerns MDA-MB-231. Particulars: MDA-MB-231 human breast cancer cell line, 48 h, MTT; read-out: IC50 MDA-MB-231. How it is done: as §1
In assay [4] the test system is SKOV3. Particulars: SK-OV-3; SKOV-3 human ovarian cancer cell line, 48 h, MTT; read-out: IC50 SKOV3. How it is done: as §1

Each structure is given as a SMILES string.

The term IC50 denotes the concentration that gives 50% inhibition.

With `C=C1C(=O)N(c2cc(OC)c(OC)c(OC)c2)[C@H]1c1ccc(OC)c(OCCO)c1` [Compound 8, (S)-4-(3-(2-hydroxyethoxy)-4-methoxyphenyl)-3-methylene-1-(3,4,5-trimethoxyphenyl)azetidin-2-one], the IC50 is 0.344 µM in assay [1], 0.925 µM in assay [2], 0.845 µM in assay [3] and 0.832 µM in assay [4].

Take `C=C1C(=O)N(c2cc(OC)c(OC)c(OC)c2)[C@H]1c1ccc(OC)c(OCCCO)c1` [Compound 9, (S)-4-(3-(3-hydroxypropoxy)-4-methoxyphenyl)-3-methylene-1-(3,4,5-trimethoxyphenyl)azetidin-2-one]: the IC50 in assay [1] stood at 1.54 µM; in assay [2], 7.47 µM; in assay [3] it was 1.92 µM; in assay [4], 3.03 µM.

Consider `C=C1C(=O)N(c2cc(OC)c(OC)c(OC)c2)[C@H]1c1ccc(OC)c(OCC(=O)OCC)c1` [Compound 12, (5)-ethyl 2-(2-methoxy-5-(3-methylene-4-oxo-1-(3,4,5-trimethoxyphenyl)azetidin-2-yl)phenoxy)acetate], for which the half-maximal inhibitory concentration (IC50) in assay [1], in assay [2], in assay [3] and in assay [4] was over 20 µM throughout.

Regarding `C=C1C(=O)N(c2cc(OC)c(OC)c(OC)c2)[C@H]1c1ccc(OC)c(OCC(=O)OC(C)(C)C)c1` [Compound 13, (S)-tert-butyl 2-(2-methoxy-5-(3-methylene-4-oxo-1-(3,4,5-trimethoxyphenyl)azetidin-2-yl)phenoxy)acetate], the IC50 in assay [1], in assay [2], in assay [3] and in assay [4] was over 10 µM in each case.

For `C/C=C1\C(=O)N(c2cc(OC)c(OC)c(OC)c2)[C@H]1c1ccc(OC)c(O)c1` [Compound 55, (S,Z)-3-ethylidene-4-(3-hydroxy-4-methoxyphenyl)-1-(3,4,5-trimethoxyphenyl)azetidin-2-one], the IC50 in assay [2] is 2.64 µM; in assay [4], 2.76 µM.

For the compound `C/C=C1/C(=O)N(c2cc(OC)c(OC)c(OC)c2)[C@H]1c1ccc(OC)c(O)c1` [Compound 56, (S,E)-3-ethylidene-4-(3-hydroxy-4-methoxyphenyl)-1-(3,4,5-trimethoxyphenyl)azetidin-2-one], the concentration for half-maximal inhibition (IC50) worked out at 2.92 µM in assay [2] and 2.83 µM in assay [4].

Consider `COc1ccc([C@H]2[C@@H](Cc3ccc(O)cc3)C(=O)N2c2cc(OC)c(OC)c(OC)c2)cc1O` [Compound 60, (3R,4R)-4-(3-hydroxy-4-methoxyphenyl)-3-(4-hydroxybenzyl)-1-(3,4,5-trimethoxyphenyl)azetidin-2-one], for which the values for the 50% inhibitory concentration (IC50) in assay [2] and in assay [4] were 7.26 µM and 2.85 µM, respectively.

With `COc1ccc([C@H]2[C@@H](CO)C(=O)N2c2cc(OC)c(OC)c(OC)c2)cc1O` [Compound 68, (3S,4R)-4-(3-hydroxy-4-methoxyphenyl)-3-(hydroxymethyl)-1-(3,4,5-trimethoxyphenyl)azetidin-2-one], the IC50 in assay [1] was 0.22 µM; in assay [2], 0.358 µM; in assay [3], 0.182 µM.

On to `COc1ccc([C@H]2[C@@H](O)C(=O)N2c2cc(OC)c(OC)c(OC)c2)cc1OCc1ccccc1` [Compound 72, (3R,4S)-4-(3-(benzyloxy)-4-methoxyphenyl)-3-hydroxy-1-(3,4,5-trimethoxyphenyl)azetidin-2-one], for which the IC50 in assay [2] and in assay [4] was over 10 µM throughout.

With `COc1ccc([C@H]2[C@@H](OS(C)(=O)=O)C(=O)N2c2cc(OC)c(OC)c(OC)c2)cc1OCc1ccccc1` [Compound 73, (3R,4S)-2-(3-(benzyloxy)-4-methoxyphenyl)-4-oxo-1-(3,4,5-trimethoxyphenyl)azetidin-3-yl methanesulfonate], the IC50 in assay [2] and in assay [4] was over 10 µM in each case.

For `COc1ccc([C@H]2[C@@H](OS(C)(=O)=O)C(=O)N2c2cc(OC)c(OC)c(OC)c2)cc1O` [Compound 74, (3R,4S)-2-(3-(hydroxy)-4-methoxyphenyl)-4-oxo-1-(3,4,5-trimethoxyphenyl)azetidin-3-yl methanesulfonate], the 50% inhibitory concentration (IC50) was determined as 0.754 µM in assay [2] and 0.98 µM in assay [4].

Regarding `COc1ccc([C@H]2[C@H](N=[N+]=[N-])C(=O)N2c2cc(OC)c(OC)c(OC)c2)cc1OCc1ccccc1` [Compound 75, (3S,4S)-3-azido-4-(3-(benzyloxy)-4-methoxyphenyl)-1-(3,4,5-trimethoxyphenyl)azetidin-2-one], the IC50 in assay [2] and in assay [4] was over 10 µM throughout.

Turning to `COc1ccc([C@H]2[C@H](N)C(=O)N2c2cc(OC)c(OC)c(OC)c2)cc1OCc1ccccc1` [Compound 76, (3S,4S)-3-amino-4-(3-(benzyloxy)-4-methoxyphenyl)-1-(3,4,5-trimethoxyphenyl)azetidin-2-one], the IC50 in assay [2] was found to be 7.46 µM; in assay [4], 8.54 µM.

Turning to `COc1ccc([C@@H]2N(c3cc(OC)c(OC)c(OC)c3)C(=O)[C@]2(O)CO)cc1OC(C)=O` [Compound 82, 5-((2S,3R)-3-hydroxy-3-(hydroxymethyl)-4-oxo-1-(3,4,5-trimethoxyphenyl)azetidin-2-yl)-2-methoxyphenyl acetate], the IC50 in assay [2] was 0.863 µM; in assay [4] it was 0.625 µM.

`COc1ccc([C@@H]2N(c3cc(OC)c(OC)c(OC)c3)C(=O)[C@@]2(COC(C)=O)OC(C)=O)cc1OC(C)=O` [Compound 83, ((2S,3R)-3-acetoxy-2-(3-acetoxy-4-methoxyphenyl)-4-oxo-1-(3,4,5-trimethoxyphenyl)azetidin-3-yl)methyl acetate]: the half-inhibitory concentration (IC50) in assay [2] and in assay [4] was over 10 µM in each case.

Consider `COc1ccc([C@@H]2N(c3cc(OC)c(OC)c(OC)c3)C(=O)[C@]2(O)CO)cc1OCc1ccccc1` [Compound 84, (3R,4S)-4-(3-(benzyloxy)-4-methoxyphenyl)-3-hydroxy-3-(hydroxymethyl)-1-(3,4,5-trimethoxyphenyl)azetidin-2-one], for which the IC50 in assay [2] is over 10 µM; in assay [4], 2.32 µM.

In the case of `C=CC(=O)OC[C@@]1(OC(=O)C=C)C(=O)N(c2cc(OC)c(OC)c(OC)c2)[C@H]1c1ccc(OC)c(OC(=O)C=C)c1` [Compound 89, ((2S,3R)-3-(acryloyloxy)-2-(3-(acryloyloxy)-4-methoxyphenyl)-4-oxo-1-(3,4,5-trimethoxyphenyl)azetidin-3-yl)methyl acrylate], the 50% inhibitory concentration (IC50) in assay [2] was found to be 2.45 µM; in assay [4], 2.23 µM.

On to `C=CC(=O)N[C@@H]1C(=O)N(c2cc(OC)c(OC)c(OC)c2)[C@H]1c1ccc(OC)c(OC(=O)C=C)c1` [Compound 90, 5-((2S,3S)-3-acrylamido-4-oxo-1-(3,4,5-trimethoxyphenyl)azetidin-2-yl)-2-methoxyphenyl acrylate], for which the half-inhibitory concentration (IC50) came to 0.025 µM in assay [2] and 0.016 µM in assay [4].

Consider `C=C1CN(c2cc(OC)c(OC)c(OC)c2)[C@H]1c1ccc(OC)c(O)c1` [Compound 91, (S)-2-methoxy-5-(3-methylene-1-(3,4,5-trimethoxyphenyl)azetidin-2-yl)phenol], for which the figures for the IC50 in assay [2] and in assay [4] were 0.252 µM and 0.246 µM, respectively.

For the compound `COc1ccc([C@@H]2N(c3cc(OC)c(OC)c(OC)c3)C(=O)[C@]23COC(=O)O3)cc1OC(C)=O` [Compound 92, 5-((1S,4R)-3,6-dioxo-2-(3,4,5-trimethoxyphenyl)-5,7-dioxa-2-azaspiro[3.4]octan-1-yl)-2-methoxyphenyl acetate], the figures for the 50% inhibitory concentration (IC50) in assay [2] and in assay [4] were 1.57 µM and 1.28 µM, respectively.

As to `COc1ccc([C@H]2C(=O)C(=O)N2c2cc(OC)c(OC)c(OC)c2)cc1OC(C)=O` [Compound 93, (S)-5-(3,4-dioxo-1-(3,4,5-trimethoxyphenyl)azetidin-2-yl)-2-methoxyphenyl acetate], the IC50 in assay [2] and in assay [4] was over 10 µM in each case.

In the case of `COc1ccc([C@@H]2N(c3cc(OC)c(OC)c(OC)c3)C(=O)[C@]2(C)O)cc1OC(C)=O` [Compound 94, 5-((2S,3R)-3-hydroxy-3-methyl-4-oxo-1-(3,4,5-trimethoxyphenyl)azetidin-2-yl)-2-methoxyphenyl acetate], the results for the IC50 in assay [2] and in assay [4] were 0.094 µM and 0.147 µM, respectively.

Take `COc1ccc([C@@H]2N(c3cc(OC)c(OC)c(OC)c3)C(=O)[C@]2(C)O)cc1O` [Compound 95, (3R,4S)-3-hydroxy-4-(3-hydroxy-4-methoxyphenyl)-3-methyl-1-(3,4,5-trimethoxyphenyl)azetidin-2-one]: the results for the IC50 in assay [2] and in assay [4] were 0.213 µM and 0.103 µM, respectively.

As for `COc1ccc([C@@H]2[C@@H](CO)C(=O)N2c2cc(OC)c(OC)c(OC)c2)cc1O` [Compound 99, (3S,4S)-4-(3-hydroxy-4-methoxyphenyl)-3-(hydroxymethyl)-1-(3,4,5-trimethoxyphenyl)azetidin-2-one], the half-inhibitory concentration (IC50) in assay [1], in assay [2] and in assay [3] was over 20 µM throughout.

In the case of `COc1ccc([C@@H]2[C@H](CO)C(=O)N2c2cc(OC)c(OC)c(OC)c2)cc1O` [Compound 100, (3R,4S)-4-(3-hydroxy-4-methoxyphenyl)-3-(hydroxymethyl)-1-(3,4,5-trimethoxyphenyl)azetidin-2-one], the half-inhibitory concentration (IC50) in assay [1] is 0.364 µM; in assay [2], 0.332 µM; in assay [3] it was 0.383 µM.
